From patent US20090048258A1, “Amide Compound” (priority 2005, published 2009)
Where two headings read alike, the source gives them in different places.

Target: T1, Human DGAT1 (Homo sapiens, UniProt O75907)
T1 construct: my translation of the primer: M-G-DYKDDDD-GDRGSSRRR) (N); made in house; host or cells: Sf9 insect cells (recombinant baculovirus BAC-DGAT1, pFASTBAC1); microsome fraction
T1 sequence (O75907 1-488): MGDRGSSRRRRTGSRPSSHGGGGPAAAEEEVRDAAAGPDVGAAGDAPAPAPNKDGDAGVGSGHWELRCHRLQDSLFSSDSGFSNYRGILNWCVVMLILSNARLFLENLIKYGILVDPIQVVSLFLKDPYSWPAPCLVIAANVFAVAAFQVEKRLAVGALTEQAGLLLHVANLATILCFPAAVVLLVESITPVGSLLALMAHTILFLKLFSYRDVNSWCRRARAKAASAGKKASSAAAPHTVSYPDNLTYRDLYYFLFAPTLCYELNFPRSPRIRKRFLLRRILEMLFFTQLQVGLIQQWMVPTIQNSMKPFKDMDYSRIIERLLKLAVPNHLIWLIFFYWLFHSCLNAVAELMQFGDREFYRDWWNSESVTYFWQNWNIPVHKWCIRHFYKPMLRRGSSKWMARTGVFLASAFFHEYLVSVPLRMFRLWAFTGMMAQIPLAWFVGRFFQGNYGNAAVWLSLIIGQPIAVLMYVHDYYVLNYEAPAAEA
Experiment: DGAT inhibitory activity: [14C]-triglyceride synthesis by DGAT1 high expression Sf9 microsome
Format: biochemical
Conditions: 25 μM [14C]-Oleoyl-CoA, 32° C., 15 min, read-out: DGAT inhibitory activity (according to IC50)
Method in brief: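 DGAT1 was overexpressed from recombinant baculovirus in Sf9 cells, and microsomes from these cells were the enzyme source. Reactions ran in 100 mM Tris-HCl pH 7.5, 250 mM sucrose, 150 mM MgCl2 and 0.01% BSA. [14C]-triglyceride was extracted into chloroform, separated by TLC and quantified by imaging plate, with inhibition calculated against control and blank (no microsome) counts.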

[1] = Table 1, 25 μM dioleoylglycerol
[2] = Table 2, 25 μM dioleoylglycerol

Row | SMILES | IC50 [1] [µM] | IC50 [2] [µM]
1 | O=C(O)COc1ccc(C(=O)CCC(=O)Nc2nc(-c3ccccc3)c(Cc3ccccc3)s2)cc1 [Example 38] | 0.5 to 10 | –
2 | CCOc1ccc(C(=O)CCC(=O)Nc2nc(-c3ccccc3)c(Cc3ccccc3)s2)cc1Cl [Example 36, N-(5-benzyl-4-phenyl-1,3-thiazol-2-yl)-4-(3-chloro-4-ethoxyphenyl)-4-oxobutanamide] | ≤ 0.01 | –
3 | O=C(CCC(=O)c1ccc2c(c1)CCO2)Nc1nc(-c2ccccc2)c(Cc2ccccc2)s1 [Example 27, N-(5-benzyl-4-phenyl-1,3-thiazol-2-yl)-4-(2,3-dihydro-1-benzofuran-5-yl)-4-oxobutanamide] | ≤ 0.01 | –
4 | COc1cc2c(cc1OC)C(=O)[C@H](CC(=O)Nc1nc(-c3ccccc3)c(Cc3ccccc3)s1)C2 (stereo in doubt) [Example 6, N-(5-benzyl-4-phenyl-1,3-thiazol-2-yl)-2-(5,6-dimethoxy-1-oxo-2,3-dihydro-1H-inden-2-yl)acetamide] | 0.01 to 0.05 | –
5 | O=C(CCC(=O)c1ccc2c(c1)CCO2)Nc1cc(-c2ccccc2O)cc(-c2ccccc2)n1 [Example 177, 4-(2,3-dihydro-1-benzofuran-5-yl)-N-[4-(2-hydroxyphenyl)-6-phenylpyridin-2-yl]-4-oxobutanamide] | – | 0.01 to 0.05
6 | CCOc1ccc(C(=O)CCC(=O)Nc2cn(Cc3ccccc3)nc2-c2ccccc2)cc1OCC [Example 20, N-(1-benzyl-3-phenyl-1H-pyrazol-4-yl)-4-(3,4-diethoxyphenyl)-4-oxobutanamide] | 0.05 to 0.5 | –
7 | O=C(CCC(=O)c1ccc2c(c1)CCO2)Nc1cc(-c2ccc(N3CCOCC3)cc2)cc(-c2ccccc2)n1 [Example 160, 4-(2,3-dihydro-1-benzofuran-5-yl)-N-[4-(4-(morpholin-4-yl)phenyl)-6-phenylpyridin-2-yl]-4-oxobutanamide] | – | 0.5 to 10
8 | CCOc1ccc(C(=O)NCCNC(=O)c2cc(-c3ccccc3)n(Cc3ccccc3)c2C)cc1 [Example 63, 1-benzyl-N-{2-[(4-ethoxybenzoyl)amino]ethyl}-2-methyl-5-phenyl-1H-pyrrole-3-carboxamide] | 0.05 to 0.5 | –
9 | CCCCOCCOc1cc(NC(=O)CCC(=O)c2ccc(OCC)c(OCC)c2)nc(-c2ccccc2)c1 [Example 107, N-[4-(2-butoxyethoxy)-6-phenylpyridin-2-yl]-4-(3,4-diethoxyphenyl)-4-oxobutanamide] | – | 0.05 to 0.5
10 | O=C(CCC(=O)c1ccc2c(c1)CCO2)Nc1cc(-c2cccc(CO)c2)cc(-c2ccccc2)n1 [Example 167, 4-(2,3-dihydro-1-benzofuran-5-yl)-N-{4-[3-(hydroxymethyl)phenyl]-6-phenylpyridin-2-yl}-4-oxobutanamide] | – | 0.05 to 0.5
11 | Cc1cc(-c2cc(NC(=O)CCC(=O)c3ccc4c(c3)CCO4)nc(-c3ccccc3)c2)cc(C)c1O [Example 183, 4-(2,3-dihydro-1-benzofuran-5-yl)-N-[4-(4-hydroxy-3,5-dimethylphenyl)-6-phenylpyridin-2-yl]-4-oxobutanamide] | – | 0.05 to 0.5
12 | CCOc1ccc(C(=O)NCCNC(=O)c2cc(-c3ccccc3)n(-c3ccc(OC(F)(F)F)cc3)c2C)cc1 [Example 62, N-{2-[(4-ethoxybenzoyl)amino]ethyl}-2-methyl-5-phenyl-1-[4-(trifluoromethoxy)phenyl]-1H-pyrrole-3-carboxamide] | 0.05 to 0.5 | –
13 | CCCc1cc(C(=O)CCC(=O)Nc2nc(-c3ccccc3)c(Cc3ccccc3)s2)ccc1OCC [Example 24, N-(5-benzyl-4-phenyl-1,3-thiazol-2-yl)-4-(4-ethoxy-3-propylphenyl)-4-oxobutanamide] | 0.01 to 0.05 | –

Second part, the compound after the results:

Row | IC50 [1] [µM] | IC50 [2] [µM] | SMILES
14 | 0.05 to 0.5 | – | CCCCc1sc(NC(=O)CCC(=O)c2ccc(OCC)c(OCC)c2)cc1-c1ccccc1 [Example 58, N-(5-butyl-4-phenyl-2-thienyl)-4-(3,4-diethoxyphenyl)-4-oxobutanamide]
15 | – | 0.05 to 0.5 | CCOc1ccc(C(=O)CCC(=O)Nc2cc(-c3ccc(C)cc3)c3cc(/C=C/C(=O)OC(C)(C)C)ccc3n2)cc1OCC [Example 78, tert-butyl (2E)-3-[2-{[4-(3,4-diethoxyphenyl)-4-oxobutanoyl]amino}-4-(4-methylphenyl)quinoline-6-yl]acrylate]
16 | 0.5 to 10 | – | CCOc1ccc(C(=O)CCC(=O)Nc2cc(-c3ccccc3)nc(-c3ccccc3)c2)cc1OCC [Example 12, 4-(3,4-diethoxyphenyl)-N-(2,6-diphenylpyridin-4-yl)-4-oxobutanamide]
17 | – | 0.5 to 10 | CCOc1ccc(C(=O)CCC(=O)Nc2cc(-c3ccc(C(=O)O)cc3)cc(-c3ccccc3)n2)cc1OCC [Example 113, 4-(2-{[4-(3,4-diethoxyphenyl)-4-oxobutanoyl]amino}-6-phenylpyridin-4-yl)benzoic acid]
18 | 0.05 to 0.5 | – | CCOc1ccc(C(=O)CCC(=O)Nc2cc(-c3ccccc3)cc(-c3ccccc3)c2)cc1OCC [Example 8, 4-(3,4-diethoxyphenyl)-4-oxo-N-(1,1′:3′,1″-terphenyl-5′-yl)butanamide]
19 | – | 0.05 to 0.5 | CCOc1ccc(C(=O)CCC(=O)Nc2cc(-c3cccc(C#N)c3)cc(-c3ccccc3)n2)cc1OCC [Example 132, N-[4-(3-cyanophenyl)-6-phenylpyridin-2-yl]-4-(3,4-diethoxyphenyl)-4-oxobutanamide]
20 | – | 0.01 to 0.05 | CCOc1ccc(C(=O)CCC(=O)Nc2cc(-c3ccc(O)c(OC)c3)cc(-c3ccccc3)n2)cc1OCC [Example 149, 4-(3,4-diethoxyphenyl)-N-[4-(4-hydroxy-3-methoxyphenyl)-6-phenylpyridin-2-yl]-4-oxobutanamide]
21 | 0.05 to 0.5 | – | CCOC(=O)CCc1ccc(NC(=O)CCC(=O)c2ccc(OCC)c(OCC)c2)cc1-c1ccccc1 [Example 9, ethyl 3-(5-{[4-(3,4-diethoxyphenyl)-4-oxobutanoyl]amino}biphenyl-2-yl)propanoate]
22 | – | 0.01 to 0.05 | CCOc1ccc(C(=O)CCC(=O)Nc2cc(-c3ccc(C(N)=O)cc3)cc(-c3ccccc3)n2)cc1OCC [Example 128, 4-(2-{[4-(3,4-diethoxyphenyl)-4-oxobutanoyl]amino}-6-phenylpyridin-4-yl)benzamide]
23 | – | 0.01 to 0.05 | CCOc1ccc(C(=O)CCC(=O)Nc2cc(-c3ccccc3)c3ccc(/C=C/C#N)cc3n2)cc1OCC [Example 86, N-{7-[(E)-2-cyanovinyl]-4-phenylquinolin-2-yl}-4-(3,4-diethoxyphenyl)-4-oxobutanamide]
24 | – | 0.05 to 0.5 | CCOc1ccc(C(=O)CCC(=O)Nc2cc(-c3ccccc3)cc(Cc3ccccc3)n2)cc1OCC [Example 95, N-(6-benzyl-4-phenylpyridin-2-yl)-4-(3,4-diethoxyphenyl)-4-oxobutanamide]
25 | – | ≤ 0.01 | CCOc1ccc(C(=O)CCC(=O)Nc2cc(-c3ccc(O)cc3)cc(-c3ccccc3)n2)cc1OCC [Example 123, 4-(3,4-diethoxyphenyl)-N-[4-(4-hydroxyphenyl)-6-phenylpyridin-2-yl]-4-oxobutanamide]
26 | – | ≤ 0.01 | CCOc1ccc(C(=O)CCC(=O)Nc2cc(-c3ccccc3C#N)cc(-c3ccccc3)n2)cc1OCC [Example 144, N-[4-(2-cyanophenyl)-6-phenylpyridin-2-yl]-4-(3,4-diethoxyphenyl)-4-oxobutanamide]
27 | – | 0.05 to 0.5 | CCOc1ccc(C(=O)CCC(=O)Nc2cc(-c3ccc(OCCN)cc3)c3ccccc3n2)cc1OCC [Example 94, N-{4-[4-(2-aminoethoxy)phenyl]quinolin-2-yl}-4-(3,4-diethoxyphenyl)-4-oxobutanamide]
